Measurements from ChEMBL document CHEMBL3785034, “New isosteroidal alkaloids with tracheal relaxant effect from the bulbs of Fritillaria pallidiflora Schrenk” (Bioorg Med Chem Lett, 2016).
Activity calls are given as the source filed them. The calls are words filed in the database; no cut-off is given here.

Columns and labels:
Trachea [1] = experiment: Inhibition of KCl-induced contraction in Sprague-Dawley rat trachea assessed as tracheal tension at 10^-5 mol/L (reference value: 2.16 to 2.59 g); format: functional
Trachea [2] = experiment: Inhibition of KCl-induced contraction in Sprague-Dawley rat trachea assessed as maximal diastolic rate at 10^-6 mol/L (reference value: 6 +/- 1.2%); format: functional; set-up: scale not given: the % may be the effect or the level left
Trachea [3] = experiment: Inhibition of KCl-induced contraction in Sprague-Dawley rat trachea assessed as tracheal tension at 10^-4 mol/L (reference value: 2.16 to 2.59 g); format: functional
Trachea [4] = experiment: Inhibition of Ach-induced contraction in Sprague-Dawley rat trachea at 100 umol/L; format: functional, tissue-based
Trachea [5] = experiment: Inhibition of Ach-induced contraction in Sprague-Dawley rat trachea assessed as tracheal tension at 10^-5 mol/L (reference value: 0.63 to 0.98 g); format: functional
Trachea [6] = experiment: Inhibition of KCl-induced contraction in Sprague-Dawley rat trachea assessed as maximal diastolic rate at 10^-7 mol/L (reference value: 7 +/- 0.8%); format: functional; set-up: scale not given: the % may be the effect or the level left
Trachea [7] = experiment: Inhibition of Ach-induced contraction in Sprague-Dawley rat trachea assessed as maximal diastolic rate at 10^-8 mol/L (reference value: 14 +/- 1.8%); format: functional; set-up: scale not given: the % may be the effect or the level left
Trachea [8] = experiment: Inhibition of Ach-induced contraction in Sprague-Dawley rat trachea assessed as tracheal tension at 10^-4 mol/L (reference value: 0.63 to 0.98 g); format: functional
Trachea [9] = experiment: Inhibition of KCl-induced contraction in Sprague-Dawley rat trachea assessed as maximal diastolic rate at 10^-8 mol/L (reference value: 7 +/- 0.3%); format: functional; set-up: scale not given: the % may be the effect or the level left
Trachea [10] = experiment: Inhibition of Ach-induced contraction in Sprague-Dawley rat trachea assessed as maximal diastolic rate at 10^-7 mol/L (reference value: 14.2 +/- 2.3%); format: functional; set-up: scale not given: the % may be the effect or the level left
Trachea [11] = experiment: Inhibition of KCl-induced contraction in Sprague-Dawley rat trachea assessed as tracheal tension at 10^-9 mol/L (reference value: 2.16 to 2.59 g); format: functional
Trachea [12] = experiment: Inhibition of Ach-induced contraction in Sprague-Dawley rat trachea assessed as tracheal tension at 10^-8 mol/L (reference value: 0.63 to 0.98 g); format: functional
Trachea [13] = experiment: Inhibition of Ach-induced contraction in Sprague-Dawley rat trachea assessed as maximal diastolic rate at 10^-9 mol/L (reference value: 12.7 +/- 2.8%); format: functional; set-up: scale not given: the % may be the effect or the level left
Trachea [14] = experiment: Inhibition of KCl-induced contraction in Sprague-Dawley rat trachea assessed as maximal diastolic rate at 10^-9 mol/L (reference value: 5.9 +/- 1.8%); format: functional; set-up: scale not given: the % may be the effect or the level left
Trachea [15] = experiment: Inhibition of Ach-induced contraction in Sprague-Dawley rat trachea assessed as maximal diastolic rate at 10^-4 mol/L (reference value: 15 +/- 4.2%); format: functional; set-up: scale not given: the % may be the effect or the level left
Trachea [16] = experiment: Inhibition of Ach-induced contraction in Sprague-Dawley rat trachea at 1 to 100 umol/L; format: functional, tissue-based; conditions: read-out: pA2 (converted)
Trachea [17] = experiment: Inhibition of KCl-induced contraction in Sprague-Dawley rat trachea assessed as tracheal tension at 10^-6 mol/L (reference value: 2.16 to 2.59 g); format: functional
Trachea [18] = experiment: Inhibition of KCl-induced contraction in Sprague-Dawley rat trachea assessed as tracheal tension at 10^-7 mol/L (reference value: 2.16 to 2.59 g); format: functional
Trachea [19] = experiment: Inhibition of Ach-induced contraction in Sprague-Dawley rat trachea assessed as tracheal tension at 10^-9 mol/L (reference value: 0.63 to 0.98g); format: functional
Trachea [20] = experiment: Inhibition of Ach-induced contraction in Sprague-Dawley rat trachea assessed as tracheal tension at 10^-6 mol/L (reference value: 0.63 to 0.98 g); format: functional
Trachea [21] = experiment: Inhibition of Ach-induced contraction in Sprague-Dawley rat trachea assessed as tracheal tension at 10^-7 mol/L (reference value: 0.63 to 0.98 g); format: functional
Trachea [22] = experiment: Inhibition of KCl-induced contraction in Sprague-Dawley rat trachea assessed as tracheal tension at 10^-8 mol/L (reference value: 2.16 to 2.59 g); format: functional
Trachea [23] = experiment: Inhibition of Ach-induced contraction in Sprague-Dawley rat trachea; format: functional, tissue-based
Trachea [24] = experiment: Inhibition of KCl-induced contraction in Sprague-Dawley rat trachea assessed as maximal diastolic rate at 10^-5 mol/L (reference value: 6 +/- 0.6%); format: functional; set-up: scale not given: the % may be the effect or the level left
Trachea [25] = experiment: Inhibition of KCl-induced contraction in Sprague-Dawley rat trachea assessed as maximal diastolic rate at 10^-4 mol/L (reference value: 6.6 +/- 0.3%); format: functional; set-up: scale not given: the % may be the effect or the level left
Trachea [26] = experiment: Inhibition of Ach-induced contraction in Sprague-Dawley rat trachea assessed as maximal diastolic rate at 10^-6 mol/L (reference value: 15.9 +/- 3%); format: functional; set-up: scale not given: the % may be the effect or the level left
Trachea [27] = experiment: Inhibition of Ach-induced contraction in Sprague-Dawley rat trachea assessed as maximal diastolic rate at 10^-5 mol/L (reference value: 15.9 +/- 2.6%); format: functional; set-up: scale not given: the % may be the effect or the level left

C[C@@H]1CC[C@H]2N(C1)C[C@H]1[C@@H]3C[C@H]4[C@@H](CC(=O)[C@H]5C[C@@H](O)CC[C@@]54C)[C@@H]3CC[C@@H]1[C@]2(C)O
Activity (Trachea [1]): 2.49 g | Activity (Trachea [2]): 3.6% | Activity (Trachea [3]): 2.48 g | inhibition (Trachea [4]): Active | Activity (Trachea [5]): 0.43 g | Activity (Trachea [6]): 3.2% | Activity (Trachea [7]): 20.6% | Activity (Trachea [8]): 0.38 g | Activity (Trachea [9]): 5.2% | Activity (Trachea [10]): 27.5% | Activity (Trachea [11]): 2.43 g | Activity (Trachea [12]): 0.51 g | Activity (Trachea [13]): 15.8% | Activity (Trachea [14]): 6.2% | Activity (Trachea [15]): 39.3% | Kb (Trachea [16]): 0.646 µM | Activity (Trachea [17]): 2.48 g | Activity (Trachea [18]): 2.49 g | Activity (Trachea [19]): 0.54 g | Activity (Trachea [20]): 0.46 g | Activity (Trachea [21]): 0.48 g | Activity (Trachea [22]): 2.46 g | EC50 (Trachea [23]): 0.65 µM | Activity (Trachea [24]): 3.3% | Activity (Trachea [25]): 3.6% | Activity (Trachea [26]): 30.4% | Activity (Trachea [27]): 34.3%
